From US9540325B2, “N1-cyclic amine-N5-substituted phenyl biguanide derivatives, methods of preparing the same and pharmaceutical composition comprising the same” (Immunomet Therapeutics, Inc., priority 2011, dated 2017)
Counter-ions that a name gives are not always drawn.

Columns and labels:
[1] = system: AMPKα; experiment: Measurement of AMPK activation effect (AMPKα Thr172 phosphorylation immunoassay) in MCF7 cells; type: cell-based, human; settings: 24 hours; for AMPK activation effect at 10 μM (%) / AMPK activation effect at 50 μM (%): relative to untreated cells; for AMPK activation effect AC150: concentration at which AMPK activation reached 150%
Description: MCF7 cells derived from human breast cancer cells (commercially available from the Korean Cell Line Bank) were used, and the AMPK activation effect of the biguanide derivative was confirmed using an AMPKα immunoassay kit (Invitrogen, Catalog No. KHO0651).
MCF7 cells were cultured in a DMEM medium supplemented with 10% fetal bovine serum. Thereafter, the cultured MCF7 cells were put into a 6-well plate with approximately 5×10^5 cells per well and cultured in an incubator supplied with 5% CO2. Culture media were treated with the derivatives synthesized in the examples at contents of 5, 10 and 50 μM, and then cultured for 24 hours. Metformin hydrochloride was used as the control, and the culture media were treated with 0.05, 0.5, 1, 2, 5 and 10 mM metformin hydrochloride, and then tested in the same manner as described in the derivatives synthesized in the examples. Subsequently, the cells were lysed according to a method presented in the operation manual of the AMPKα immunoassay kit, and 20 μg of a cell lysate was then yielded through protein assay. Thereafter, the AMPK activation effect was obtained by determining the degree of phosphorylation of 172nd threonine residue (Thr172) of the AMPKα from the cell lysate according to the method presented in the operation manual of the AMPKα immunoassay kit. […] A curve graph showing AMPK activation according to the concentration of the treated compounds was plotted based on the obtained AMPKα activation results, the concentration (activation concentration 150, AC150) value of the compound whose AMPK activation reached 150% was calculated using a GraphPad Prism 5.0 program, and the degrees of AMPK activation were obtained when concentrations of the treated biguanide derivatives were 10 μM and 50 μM and the metformin hydrochloride was 50 μM

[2] = system: HCT116 cells; experiment: Measurement of effect of inhibiting cancer cell proliferation (MTT); type: cell-based, human; settings: for inhibition at 100 µM: HCT-116, 100 μM, read-out: Cell Growth Inhibition (%) at 100 μM
Source text: HCT116 cells derived from human colorectal cancer (commercially available from the Korean Cell Line Bank) were used, and the effect of inhibiting cancer cell proliferation of the biguanide derivative was confirmed by measuring the concentration value (cell growth inhibition concentration, GIC50) at which cell growth was inhibited by 50% using a 3-(4,5-dimethylthiazol-2-yl)-2,5-diphenyltetrazolium bromide (MTT) reagent.
First, HCT116 cells were put on a 96-well plate and cultured in a DMEM medium containing 10% fetal bovine serum for 16 hours so that the cellcount in each well was approximately 5,000. Subsequently, to obtain the GIC50 value of each compound, culture media were treated with 100 μM, 25 μM, 6.25 μM, 1.56 μM or 0.39 μM of the compound, and then cultured for 48 hours. Metformin hydrochloride was used as the control, and the culture media were treated with 25, 12.5, 2.5, 0.5, 0.1 mM metformin hydrochloride, and then tested in the same manner as described in the derivatives synthesized in the examples. In order to determine whether the cells survived after treatment with the compounds, MTT was added to the culture media which were then cultured for another 3 hours. Formed formazane crystals were dissolved using dimethyl sulfoxide (DMSO), and the absorbance of the resulting solution was measured at 560 nm. After the 48-hour culture, […] was indicated as cell viability (%) according to each treated concentration. A cell viability curve graph was plotted and the concentration (GIC50) value of the compound at which the growth was inhibited by 50% was calculated to confirm the inhibition effect of cancer cell proliferation. Also, the cell growth viability (%) when the concentration of the treated biguanide derivative and the metformin hydrochloride as the control were 100 μM was shown.

SMILES | AMPK activation effect at 10 μM (%) [1] [%] | AMPK activation effect at 50 μM (%) [1] [%] | AMPK activation effect AC150 [1] [µM] | inhibition at 100 µM ([2]; Homo sapiens, 48 hours) [%] | GI50 ([2]; Homo sapiens, HCT-116, 48 h) [µM] | melting point [°C] | Cell Growth Inhibition (%) at 100 μM ([2]; 100 μM, 48 hours) [%] | GI50 ([2]; 48 hours) [µM]
Cl.N=C(NC(=N)N1CCOCC1)Nc1ccc(OC(F)(F)F)cc1 [Example 34, N1-morpholine-N5-(4-trifluoromethoxy)phenyl biguanide hydrochloride] | 121 | 168 | 33.7 | 98 | 47.3 | 263 to 264 | – | –
N=C(NC(=N)N1CCCCC1)Nc1ccc(OC(F)(F)F)c(F)c1 (as salt: acetate) [Example 77, N1-piperidine-N5-(3-fluoro-4-trifluoromethoxy)phenyl biguanide acetate] | – | – | – | – | – | 202 to 204 | – | –
Cl.N=C(NC(=N)N1CCCCC1)Nc1ccc(Cl)cc1Cl [Example 62, N1-piperidine-N5-(2,4-dichloro)phenyl biguanide hydrochloride] | 208 | – | 5.6 | 97.2 | 11.6 | 262 to 263 | – | –
COc1cccc(NC(=N)NC(=N)N2CCCCC2)c1.Cl [Example 13, N1-piperidine-N5-(3-methoxy)phenyl biguanide hydrochloride] | 97 | 300 | 16.0 | 45.4 | > 100 | 230 to 232 | – | –
N=C(NC(=N)N1CCCC1)Nc1ccc(OC(F)(F)F)c(F)c1 (as salt: acetate) [Example 76, N1-pyrrolidine-N5-(3-fluoro-4-trifluoromethoxy)phenyl biguanide acetate] | – | – | – | – | – | 203 to 205 | – | –
Cl.N=C(NC(=N)N1CCCC1)Nc1ccc(OC(F)(F)F)c(Cl)c1 [Example 56, N1-pyrrolidine-N5-(3-chloro-4-trifluoromethoxy)phenyl biguanide hydrochloride] | 367 | – | 2.0 | 101 | 4.6 | – | – | –
Cl.N=C(NC(=N)N1CCCCC1)Nc1ccc(Cl)c(Cl)c1 [Example 64, N1-piperidine-N5-(3,4-dichloro)phenyl biguanide hydrochloride] | 442 | – | 0.7 | 101 | 6.4 | 267 to 269 | – | –
Cl.N=C(NC(=N)N1CCC1)Nc1ccc(OC(F)(F)F)c(F)c1 [Example 52, N1-azetidine-N5-(3-fluoro-4-trifluoromethoxy)phenyl biguanide hydrochloride] | 265 | 740 | 3.3 | 101 | 19.8 | 260 to 261 | – | –
Cl.N=C(NC(=N)N1CCCCC1)Nc1ccc(S(N)(=O)=O)cc1 [Example 44, N1-piperidine-N5-(4-sulfamoyl)phenyl biguanide hydrochloride] | 119 | 114 | >50 | 32.6 | > 100 | – | – | –
Cl.N=C(NC(=N)N1CCCC1)Nc1cccc(OC(F)(F)F)c1 [Example 28, N1-pyrrolidine-N5-(3-trifluoromethoxy)phenyl biguanide hydrochloride] | 158 | 424 | 6.9 | 97.6 | 19 | 261 to 262 | – | –
Cl.N=C(NC(=N)N1CCCC1)Nc1cccc(Cl)c1 [Example 19, N1-pyrrolidine-N5-(3-chloro)phenyl biguanide hydrochloride] | 176 | 586 | 4.4 | 74 | 55.9 | 170 to 172 | – | –
Cl.N=C(NC(=N)N1CCC1)Nc1ccc(C(F)(F)F)cc1 [Example 25, N1-azetidine-N5-(4-trifluoromethyl)phenyl biguanide hydrochloride] | 99 | 156 | 46.6 | 96.3 | 27.6 | 258 to 259 | – | –
CN(C)c1ccc(NC(=N)NC(=N)N2CCCCC2)cc1.Cl [Example 37, N1-piperidine-N5-(4-dimethylamino)phenyl biguanide hydrochloride] | 123 | 286 | 13.9 | 32.2 | > 100 | 253 to 255 | – | –
Cl.N=C(NC(=N)N1CCCCC1)Nc1cc(F)c(F)c(F)c1 [Example 68, N1-piperidine-N5-(3,4,5-trifluoro)phenyl biguanide hydrochloride] | 197 | – | 7.2 | 97.6 | 13.8 | 248 to 249 | – | –
Cl.N=C(NC(=N)N1CCCCC1)Nc1ccc(Cl)cc1 [Example 18, N1-piperidine-N5-(4-chloro)phenyl biguanide hydrochloride] | 281 | – | 3.4 | 97.7 | 17 | 275 to 276 | – | –
Cl.N=C(NC(=N)N1CCCCC1)Nc1cc(Cl)cc(OC(F)(F)F)c1 [Example 65, N1-piperidine-N5-(3-chloro-5-trifluoromethoxy)phenyl biguanide hydrochloride] | – | – | 5.0 | 97.3 | 3.6 | 208 to 209 | – | –
Cl.N=C(NC(=N)N1CCCCC1)Nc1cccc(F)c1 [Example 16, N1-piperidine-N5-(3-fluoro)phenyl biguanide hydrochloride] | – | 378 | 9.9 | 67.2 | 72.4 | 201 to 202 | – | –
N=C(NC(=N)N1CCCCC1)Nc1ccc(OC(F)(F)F)cc1 (as salt: acetate) [Example 73, N1-piperidine-N5-(4-trifluoromethoxy)phenyl biguanide acetate] | – | – | – | – | – | 200 to 202 | – | –
N=C(NC(=N)N1CCCC1)Nc1ccc(C(F)(F)F)c(F)c1 (as salt: acetate) [Example 74, N1-pyrrolidine-N5-(3-fluoro-4-trifluoromethyl)phenyl biguanide acetate] | – | – | – | – | – | 204 to 205 | – | –
N=C(NC(=N)N1CCCCC1)Nc1ccc(C(F)(F)F)c(F)c1 (as salt: acetate) [Example 75, N1-piperidine-N5-(3-fluoro-4-trifluoromethyl)phenyl biguanide acetate] | – | – | – | – | – | 206 to 208 | – | –
Cl.N=C(NC(=N)N1CCCCC1)Nc1cccc(OC(F)F)c1 [Example 30, N1-piperidine-N5-(3-difluoromethoxy)phenyl biguanide hydrochloride] | 187 | 636 | 6.4 | – | – | – | 97.9 | 33.7
Cl.N=C(NC(=N)N1CCCCC1)Nc1ccc(S(=O)(=O)O)cc1 [Example 42, N1-piperidine-N5-(4-sulfonic acid)phenyl biguanide hydrochloride] | 68 | 97 | >50 | 23.2 | > 100 | – | – | –
N=C(NC(=N)N1CCCCC1)Nc1ccc(C(F)(F)F)cc1 (as salt: acetate) [Example 71, N1-piperidine-N5-(4-trifluoromethyl)phenyl biguanide acetate] | – | – | – | – | – | 198 to 200 | – | –
